Values of other authors in patent publication US20240115666A1, “COMPOSITIONS AND METHODS FOR REDUCING GAMMA-GLUTAMYLTRANSFERASE LEVELS” (Lile Method Research, LLC, priority 2022, published 2024).

half-life in the blood: seconds to minutes
SMILES: N[C@@H](CCC(=O)N[C@@H](CS)C(=O)NCC(=O)O)C(=O)O [glutathione, L-γ-glutamyl-L-cysteinylglycine]
